Laboratory results reported in US20230028680A1, “EXPANSION OF NATURAL KILLER CELLS AND ILC3 CELLS WITH NOVEL AROMATIC COMPOUNDS” (Celularity Inc., priority 2018, published 2023).
Entries after “also recorded” stand apart in the source; their conditions may differ.

Key:
Type in all cases: cell-based, human
[1] = test system: K562 tumor cells; assay: Cytotoxicity assay of compound cultured cells against K562 tumor cells; conditions: 10:1 E:T ratio, both donors
Protocol: (§1) For biological testing, the compounds were provided to culture to evaluate their effects on NK cell expansion and differentiation. Specifically, donors of CD34+ cells (StemCell Technology) were thawed and expanded in vitro following NK culture protocol. During the first 14 days of the culture, each CRL compounds was dissolved in DMSO and added to the culture at 10 μM concentration. SR1 (at 10 μM) served as a positive control compound, while DMSO alone without any compound served as a negative control. At the end of the culture on Day 35, cell expansion, natural killer (NK) cell differentiation and cytotoxicity of the cells against K562 tumor cell line were characterized. Due to the large number of the compounds, the testing was performed in two experiments, CRL1-11 and CRL 12-22. The same donors were used for each experiment. Positive and negative controls were also included in both experiments.
Cytotoxicity assay was run using compound cultured cells against K562 tumor cells at 10:1 effector to target ratio (FIG. 5) to evaluate cell functions.

[2] = test system: NK cells; assay: NK cell differentiation at Day 35 by multi-color flow cytometry; conditions: PNK-007 culture, compound at 10 μM
Text: (§2) UCB CD34+ cells were cultivated in presence of cytokines including thrombopoietin, SCF, Flt3 ligand, IL-7, IL-15 and IL-2 for 35 days to produce three-stage NK cells, as described in Example 1. Multi-color flow cytometry was used to determine the phenotypic characteristics of three-stage NK cells.
as §1

[3] = test system: NK cells; assay: NK cell expansion from CD34+ cells in three-stage NK culture, compound present for the first 14 days; conditions: for level of expansion compared to SR1 at Day 35 / expansion, differentiation and cytotoxicity profiles compared to SR1: compound at 10 μM; for level of expansion compared to SR1 at Day 35: SR1 at 10 μM as positive control; for expansion, differentiation and cytotoxicity profiles compared to SR1: PNK-007 culture; for support of NK cell expansion (and differentiation), in words: compound at 10 μM during first 14 days of culture; for level of expansion compared to SR1 at Day 35 / support of NK cell expansion (and differentiation), in words: Day 35
Protocol: (§3) CD34^+ cells are cultured in the following medium formulations for the indicated number of days, and aliquots of cells are taken for assessment of cell count, cell viability, characterization of natural killer cell differentiation and functional evaluation.
(§4) Stage 1 medium: 90% Stem Cell Growth Medium (SCGM) (CellGro®), 10% Human Serum-AB, supplemented with 25 ng/mL or 250 ng/mL recombinant human thrombopoietin (TPO), 25 ng/mL recombinant human Flt3L, 27 ng/mL recombinant human stem cell factor (SCF), 25 ng/mL recombinant human IL-7, 0.05 ng/mL or 0.025 ng/mL recombinant human IL-6, 0.25 ng/mL or 0.125 ng/mL recombinant human granulocyte colony-stimulating factor (G-CSF), 0.01 ng/mL or 0.025 ng/mL recombinant human granulocyte-macrophage colony-stimulating factor (GM-CSF), 0.10% gentamicin, and 1 to 10 μm StemRegenin-1 (SR-1) or other stem cell mobilizing agent.
(§5) Stage 2 medium: 90% SCGM, 10% Human Serum-AB, supplemented with 25 ng/mL recombinant human Flt3L, 27 ng/mL recombinant human SCF, 25 ng/mL recombinant human IL-7, 20 ng/mL recombinant human IL-15, 0.05 ng/mL or 0.025 ng/mL recombinant human IL-6, 0.25 ng/mL or 0.125 ng/mL recombinant human granulocyte colony-stimulating factor (G-CSF), 0.01 ng/mL or 0.025 ng/mL recombinant human granulocyte-macrophage colony-stimulating factor (GM-CSF), 0.10% gentamicin, and 1 to […] SR1 or other stem cell mobilizing agent.
Stage 3 medium: 90% STEMMACS′, 10% Human Serum-AB, 0.025 mM 2-mercaptoethanol (55 mM), supplemented with 22 ng/mL recombinant human SCF, 1000 U/mL recombinant human IL-2, 20 ng/mL recombinant human IL-7, 20 ng/mL recombinant human IL-15, 0.05 ng/mL or 0.025 ng/mL recombinant human IL-6, 0.25 ng/mL or 0.125 ng/mL recombinant human granulocyte colony-stimulating factor (G-CSF), 0.01 ng/mL or 0.025 ng/mL recombinant human granulocyte-macrophage colony-stimulating factor (GM-CSF), and 0.10% gentamicin.
(§6) Cells are seeded at Day 0 at 3×10^4 cells/mL in Stage 1 media, and cells are tested for purity by a CD34+ and CD45+ count and viability by 7AAD staining. At Day 5 cells are counted and seeded to a concentration of 1×10^5 cells/mL with Stage 1 medium. At Day 7 cells are counted and seeded to a concentration of 1×10^5 cells/mL with Stage 1 medium.
(§7) At Day 10, cells are counted and seeded to a concentration of 1×10^5 cells/mL in Stage 2 medium. At Day 12, cells are counted and seeded to a concentration of 3×10^5 cells/mL in Stage 2 medium. At Day 14, cells are counted and seeded in Stage 3 medium. Cells are maintained in Stage 3 media until day 35.
as §2, §1

[4] = test system: CD34 cells; assay: CD34 cell expansion at Day 14 of the NK culture; conditions: compound at 10 μM; Day 14 of the culture
Protocol: as §3, §4, §5, §6
as §7, with “35. […]” for “35.”

SMILES	killing activities of cultured cells compared to those cultured with SR1 [1]	CD56+/CD11a+ subpopulation compared to SR1 [2]	level of expansion compared to SR1 at Day 35 [3]	CD34 cell expansion at Day 14 [4]	expansion, differentiation and cytotoxicity profiles compared to SR1 [3]	support of NK cell expansion (and differentiation), in words [3]
CC(C)c1csc2c(NCCc3c[nH]c4ccccc34)nc(-c3cncc(C#N)c3)nc12 [CRL17, 5-(4-((2-(1H-indol-3-yl)ethyl)amino)-7-isopropylthieno[3,2-d]pyrimidin-2-yl)nicotinonitrile]	increased killing activities of the cells	increased CD56+/CD11a+ subpopulation	slightly less expansion compared to SR1			
Cc1cncc(-c2nc(NCCc3c[nH]c4ccccc34)c3scc(C(C)C)c3n2)c1 [CRL21, N-(2-(1H-indol-3-yl)ethyl)-7-isopropyl-2-(5-methylpyridin-3-yl)thieno[3,2-d]pyrimidin-4-amine]	increased killing activities of the cells	increased CD56+/CD11a+ subpopulation	slightly less expansion compared to SR1			
Cc1cncc(-c2nc(NCCc3c[nH]c4ccccc34)c3occc3n2)c1 [CRL20, N-(2-(1H-indol-3-yl)ethyl)-2-(5-methylpyridin-3-yl)furo[3,2-d]pyrimidin-4-amine]				achieved the highest CD34 cell expansion	very similar expansion, differentiation and cytotoxicity profiles as SR1	supported cell expansion the best
CC(C)c1csc2c(NCCc3c[nH]c4ccccc34)nc(-c3cncc(F)c3)nc12 [CRL18, N-(2-(1H-indol-3-yl)ethyl)-2-(5-fluoropyridin-3-yl)-7-isopropylthieno[3,2-d]pyrimidin-4-amine]	increased killing activities of the cells	increased CD56+/CD11a+ subpopulation	slightly less expansion compared to SR1			
CCC(C)Nc1cc(-c2cncc(C#N)c2)nc(NCCc2c[nH]c3ccccc23)n1 (centres unmarked) [CRL7, 5-(2-((2-(1H-indol-3-yl)ethyl)amino)-6-(sec-butylamino)pyrimidin-4-yl)nicotinonitrile]						Except for CRL7 and CRL13, the rest of the compounds all resulted in a NK expansion; also recorded: all the compounds except CRL7 and CRL13 supported PNK-007 expansion and differentiation
CCC(C)Nc1nc(NCCc2c[nH]c3ccccc23)c2ccccc2n1 (centres unmarked) [CRL13, N^4-(2-(1H-indol-3-yl)ethyl)-N^2-(sec-butyl)quinazoline-2,4-diamine]						Except for CRL7 and CRL13, the rest of the compounds all resulted in a NK expansion; also recorded: all the compounds except CRL7 and CRL13 supported PNK-007 expansion and differentiation
Fc1cncc(-c2nc(NCCc3c[nH]c4ccccc34)c3occc3n2)c1 [CRL19, N-(2-(1H-indol-3-yl)ethyl)-2-(5-fluoropyridin-3-yl)furo[3,2-d]pyrimidin-4-amine]				achieved the highest CD34 cell expansion	very similar expansion, differentiation and cytotoxicity profiles as SR1	supported cell expansion the best
N#Cc1cncc(-c2nc(NCCc3c[nH]c4ccccc34)c3occc3n2)c1 [CRL22, 5-(4-((2-(1H-indol-3-yl)ethyl)amino)furo[3,2-d]pyrimidin-2-yl)nicotinonitrile]				achieved the highest CD34 cell expansion	very similar expansion, differentiation and cytotoxicity profiles as SR1	supported cell expansion the best
